The numbers were not newly measured in US11717481B2, “Reduction of flake-like aggregation in nanoparticulate active agent compositions” (Alkermes Pharma Ireland Limited, priority 2009, dated 2023), which cites them from elsewhere.

As for `Cc1cnc(NC(=O)C2=C(O)c3ccccc3S(=O)(=O)N2C)s1` [Meloxicam, 4-hydroxy-2-methyl-N-(5-methyl-2-thiazolyl)-2H-1,2-benzothiazine-3-carboxamide-1,1-dioxide], the solubility in water entry is on record as “Practically insoluble”.
